B1: Deletion of domain-4: biotinylated SNHG12 construct with predicted secondary-structure domain 4 deleted (nucleic acid, listed as Homo sapiens)
chain: TGCAAGCCTCTGCCTGCCTTCCTGCGCGCCGTTCCCCGCTAGTCGCTGCTGCTGGCGCGCACTCGCCGGGTTTTTCCTCCCACGGCCTCGAGATGGTGGTGAATGTGGCACGGAGGAGCCGGGCCTTCCAACCCGGTGGGCCCGAGCTCCGAAAGGCCCCCTCGGCAGTGAGAGGGGCGGGAGCCCGCGGGGGCCGCGCCCTTCTCTCGCTTCGGACTGCGCAACGCTGCGCTCTGGGCTGACAGGCGGATAAAACGGTCCCATCAAGACTGAGAAAAAGCACACCAGCTATTGGCACAGCGTGGGCAGTGGGGCCTACAGGATGACTGACTTAGTCTACAGAGATCCCGGCGTACTTAAGCAGATGAAGACTCTTAAGATGACAGAAGGTGATTTTTCTGGTGATCGAGGACTTCCGGGGTAATGACAGTGATGAAATGCAGGGGACCTGGTTGCCCCCAAGTTTCCTGGCAGTGTGTGATACTGAGGAGGTGAGCTTGTTTCTGGAGCTGTGCTTTAAGGTAAAGTTGATCAGCTTAATCCTCCTGATCCCTTTCCCA
modifications: biotin
notes: biotinylated SNHG12 construct with predicted secondary-structure domain 4 deleted

Assays:
HUVECs = assay: Mitochondrial stress (Seahorse OCR/ECAR, NAD+/NADH) in gapmeR-transfected HUVECs; type: cell-based, human
Experimental: FIGS. 13A-D. Accumulating DNA damage and its effect on mitochondrial stress. (A) Oxidative consumption rate (OCR) and extracellular acidification rate (ECAR). The bars from left to right represent control, control+NR, SNHG12 KD, and SNHG12 KD+NR, respectively. (B) in HUVECs transfected with the indicated gapmeRs in the absence or presence of NR (500 μM, 24 hrs) (n=3). P value was determined by one-way analysis of variance (ANOVA) (Fisher's test). The bars from left to right represent control, control+NR, SNHG12 KD, and SNHG12 KD+NR, respectively. (C) SNHG12 expression or (D) ratio of NAD+ to […] in gapmeR-transfected HUVECs in the absence or presence of NR (n=3). P value was determined by Student's t test. For all panels, values are mean±SD; *p<0.05, **p<0.01; ***p<0.001; ****p<0.0001.
Mitochondrial dysfunction is a hallmark of senescence and reparative responses during oxidative insults requires effective energy metabolism. Oxidative stress-induced DNA damage activates NAD+ consumption pathways (31). Examination of the effect of SNHG12 knockdown on key mitochondrial activities such as mitochondrial respiration and glycolysis in ECs used Seahorse analyses. Loss of SNHG12 decreased the extracellular acidification rate (ECAR) and oxygen consumption rate (OCR) of live cells (FIGS. 13A, 13B). […]

LDLR−/− mice = assay: NR rescue of SNHG12-gapmeR accelerated atherosclerosis in LDLR−/− mice; type: in vivo, mouse
Experimental: FIGS. 5A-G. NR rescued progression of atherosclerotic lesions in LDLR^−/− mice induced by SNHG12 silencing. (A) LDLR^−/− mice were i.v. injected with vehicle control or SNHG12-gapmeR (7.5 mg/kg/mouse) twice per week and placed on an HCD containing NR (400 mg/kg/day) for 12 weeks (n=12 per group). (B) Lesion areas were quantified using ORO area on aortic sinus sections (n=10 per group). Fold change was calculated compared to groups from study 1 as described in FIG. 1. P value was determined by Student's t test. (C) Lesional DNA damage in the vascular endothelium of the aortic arch was quantified in LDLR^−/− mice by γH2AX with nuclear co-localization with DAPI in CD31^+ cells compared to study 1. RT-qPCR analysis for (D) SNHG12 and (E) markers of senescence p16, p21, and p27 from RNA isolated of the aortic intima of mice placed on HCD containing NR (n=6 per group). P value was determined by Student's t test. (F) Acellular areas were measured in the aortic sinus for each of the indicated groups (n=6 per group; 2-3 lesion per mice). (G) TUNEL staining was quantified in the aortic sinus for each of the indicated groups (n=7 per group). P value was determined by Student's t test. For all panels, values are mean±SD; *p<0.05, **p<0.01; ***p<0.001; ****p<0.0001.
Furthermore, administration of the NAD^+ precursor NR can limit DNA damage. […] To assess whether SNHG12-deficient lesion progression involves increased DNA damage, SNHG12-gapmeR was delivered i.v. as described in (FIG. 1F) and the HCD was supplemented with NR (400 mg/kg/day) (FIG. 5A). […] Moreover, NR administration abrogated the SNHG12-gapmeR mediated effect on increased γH2AX foci in lesional ECs in the aortic arch (FIG. 5C). Consistent with less DNA damage, the induction of the senescence markers p16, p21, and p27 fell in the presence of NR compared to LDLR^−/− mice treated with SNHG12-gapmeRs without NR (FIGS. 5D, 5E). […] Taken together, the rescue effects mediated by NR strongly support the findings that the lncRNA SNHG12 regulates the DDR both in vitro and in vivo.

DNA-PK = target: T1, DNA-PK (Homo sapiens, UniProt P78527); assay: lncRNA pulldown of biotinylated SNHG12 domain deletion constructs; type: binding; details: pulldown with HUVEC nuclear protein lysate
T1 construct: lncRNA pulldown using nuclear protein extract from HUVECs; endogenous in cells; host or cells: HUVEC nuclear protein lysate
Excerpt: (A) Proteins identified in pulldowns of biotinylated SNHG12; DNA-PK bound specifically to SNHG12 compared to negative control LacZ (n=2, two technical replicates each). (B) Immunoblotting for DNA-PK, ATM, ATR, Ku80, Ku70, p53, and control on nuclear protein lysate from HUVECs after lncRNA pulldown (n=5). (C) Analysis after streptavidin pulldown of nuclear protein lysate derived from the aorta of C57B1/6 mice following two i.v. injections of biotin-labeled SNHG12 compared to LacZ (n=4 per group). (D, E) Predicted secondary structure of SNHG12 with indicated deletions of domains 1˜4 used for subsequent lncRNA pulldown of biotinylated SNHG12 domain deletion constructs (n=4). P value was determined by one-way analysis of variance (ANOVA) (Fisher's test). (F) IP for DNA-PK following RNA isolation and subsequent RT-qPCR for SNHG12 and for negative control HPRT (n=5). […] Immunoblotting for Ku70, Ku80 and DNA-PK and (H) quantification under H2O2 conditions (n=3). […]
To identify potential SNHG12-interacting proteins that may inform mechanisms underlying these findings, biotin-labeled T7 in vitro transcribed SNHG12 or LacZ was incubated with nuclear protein lysate of HUVECs (FIG. 9A). […] Furthermore, biophysical studies determined the equilibrium dissociation constant (KD) for the SNHG12-DNA-PK interaction (1.318E-07 μM) (FIG. 9E). […]

T1 sequence (P78527 whole entry, the tested form may be a part): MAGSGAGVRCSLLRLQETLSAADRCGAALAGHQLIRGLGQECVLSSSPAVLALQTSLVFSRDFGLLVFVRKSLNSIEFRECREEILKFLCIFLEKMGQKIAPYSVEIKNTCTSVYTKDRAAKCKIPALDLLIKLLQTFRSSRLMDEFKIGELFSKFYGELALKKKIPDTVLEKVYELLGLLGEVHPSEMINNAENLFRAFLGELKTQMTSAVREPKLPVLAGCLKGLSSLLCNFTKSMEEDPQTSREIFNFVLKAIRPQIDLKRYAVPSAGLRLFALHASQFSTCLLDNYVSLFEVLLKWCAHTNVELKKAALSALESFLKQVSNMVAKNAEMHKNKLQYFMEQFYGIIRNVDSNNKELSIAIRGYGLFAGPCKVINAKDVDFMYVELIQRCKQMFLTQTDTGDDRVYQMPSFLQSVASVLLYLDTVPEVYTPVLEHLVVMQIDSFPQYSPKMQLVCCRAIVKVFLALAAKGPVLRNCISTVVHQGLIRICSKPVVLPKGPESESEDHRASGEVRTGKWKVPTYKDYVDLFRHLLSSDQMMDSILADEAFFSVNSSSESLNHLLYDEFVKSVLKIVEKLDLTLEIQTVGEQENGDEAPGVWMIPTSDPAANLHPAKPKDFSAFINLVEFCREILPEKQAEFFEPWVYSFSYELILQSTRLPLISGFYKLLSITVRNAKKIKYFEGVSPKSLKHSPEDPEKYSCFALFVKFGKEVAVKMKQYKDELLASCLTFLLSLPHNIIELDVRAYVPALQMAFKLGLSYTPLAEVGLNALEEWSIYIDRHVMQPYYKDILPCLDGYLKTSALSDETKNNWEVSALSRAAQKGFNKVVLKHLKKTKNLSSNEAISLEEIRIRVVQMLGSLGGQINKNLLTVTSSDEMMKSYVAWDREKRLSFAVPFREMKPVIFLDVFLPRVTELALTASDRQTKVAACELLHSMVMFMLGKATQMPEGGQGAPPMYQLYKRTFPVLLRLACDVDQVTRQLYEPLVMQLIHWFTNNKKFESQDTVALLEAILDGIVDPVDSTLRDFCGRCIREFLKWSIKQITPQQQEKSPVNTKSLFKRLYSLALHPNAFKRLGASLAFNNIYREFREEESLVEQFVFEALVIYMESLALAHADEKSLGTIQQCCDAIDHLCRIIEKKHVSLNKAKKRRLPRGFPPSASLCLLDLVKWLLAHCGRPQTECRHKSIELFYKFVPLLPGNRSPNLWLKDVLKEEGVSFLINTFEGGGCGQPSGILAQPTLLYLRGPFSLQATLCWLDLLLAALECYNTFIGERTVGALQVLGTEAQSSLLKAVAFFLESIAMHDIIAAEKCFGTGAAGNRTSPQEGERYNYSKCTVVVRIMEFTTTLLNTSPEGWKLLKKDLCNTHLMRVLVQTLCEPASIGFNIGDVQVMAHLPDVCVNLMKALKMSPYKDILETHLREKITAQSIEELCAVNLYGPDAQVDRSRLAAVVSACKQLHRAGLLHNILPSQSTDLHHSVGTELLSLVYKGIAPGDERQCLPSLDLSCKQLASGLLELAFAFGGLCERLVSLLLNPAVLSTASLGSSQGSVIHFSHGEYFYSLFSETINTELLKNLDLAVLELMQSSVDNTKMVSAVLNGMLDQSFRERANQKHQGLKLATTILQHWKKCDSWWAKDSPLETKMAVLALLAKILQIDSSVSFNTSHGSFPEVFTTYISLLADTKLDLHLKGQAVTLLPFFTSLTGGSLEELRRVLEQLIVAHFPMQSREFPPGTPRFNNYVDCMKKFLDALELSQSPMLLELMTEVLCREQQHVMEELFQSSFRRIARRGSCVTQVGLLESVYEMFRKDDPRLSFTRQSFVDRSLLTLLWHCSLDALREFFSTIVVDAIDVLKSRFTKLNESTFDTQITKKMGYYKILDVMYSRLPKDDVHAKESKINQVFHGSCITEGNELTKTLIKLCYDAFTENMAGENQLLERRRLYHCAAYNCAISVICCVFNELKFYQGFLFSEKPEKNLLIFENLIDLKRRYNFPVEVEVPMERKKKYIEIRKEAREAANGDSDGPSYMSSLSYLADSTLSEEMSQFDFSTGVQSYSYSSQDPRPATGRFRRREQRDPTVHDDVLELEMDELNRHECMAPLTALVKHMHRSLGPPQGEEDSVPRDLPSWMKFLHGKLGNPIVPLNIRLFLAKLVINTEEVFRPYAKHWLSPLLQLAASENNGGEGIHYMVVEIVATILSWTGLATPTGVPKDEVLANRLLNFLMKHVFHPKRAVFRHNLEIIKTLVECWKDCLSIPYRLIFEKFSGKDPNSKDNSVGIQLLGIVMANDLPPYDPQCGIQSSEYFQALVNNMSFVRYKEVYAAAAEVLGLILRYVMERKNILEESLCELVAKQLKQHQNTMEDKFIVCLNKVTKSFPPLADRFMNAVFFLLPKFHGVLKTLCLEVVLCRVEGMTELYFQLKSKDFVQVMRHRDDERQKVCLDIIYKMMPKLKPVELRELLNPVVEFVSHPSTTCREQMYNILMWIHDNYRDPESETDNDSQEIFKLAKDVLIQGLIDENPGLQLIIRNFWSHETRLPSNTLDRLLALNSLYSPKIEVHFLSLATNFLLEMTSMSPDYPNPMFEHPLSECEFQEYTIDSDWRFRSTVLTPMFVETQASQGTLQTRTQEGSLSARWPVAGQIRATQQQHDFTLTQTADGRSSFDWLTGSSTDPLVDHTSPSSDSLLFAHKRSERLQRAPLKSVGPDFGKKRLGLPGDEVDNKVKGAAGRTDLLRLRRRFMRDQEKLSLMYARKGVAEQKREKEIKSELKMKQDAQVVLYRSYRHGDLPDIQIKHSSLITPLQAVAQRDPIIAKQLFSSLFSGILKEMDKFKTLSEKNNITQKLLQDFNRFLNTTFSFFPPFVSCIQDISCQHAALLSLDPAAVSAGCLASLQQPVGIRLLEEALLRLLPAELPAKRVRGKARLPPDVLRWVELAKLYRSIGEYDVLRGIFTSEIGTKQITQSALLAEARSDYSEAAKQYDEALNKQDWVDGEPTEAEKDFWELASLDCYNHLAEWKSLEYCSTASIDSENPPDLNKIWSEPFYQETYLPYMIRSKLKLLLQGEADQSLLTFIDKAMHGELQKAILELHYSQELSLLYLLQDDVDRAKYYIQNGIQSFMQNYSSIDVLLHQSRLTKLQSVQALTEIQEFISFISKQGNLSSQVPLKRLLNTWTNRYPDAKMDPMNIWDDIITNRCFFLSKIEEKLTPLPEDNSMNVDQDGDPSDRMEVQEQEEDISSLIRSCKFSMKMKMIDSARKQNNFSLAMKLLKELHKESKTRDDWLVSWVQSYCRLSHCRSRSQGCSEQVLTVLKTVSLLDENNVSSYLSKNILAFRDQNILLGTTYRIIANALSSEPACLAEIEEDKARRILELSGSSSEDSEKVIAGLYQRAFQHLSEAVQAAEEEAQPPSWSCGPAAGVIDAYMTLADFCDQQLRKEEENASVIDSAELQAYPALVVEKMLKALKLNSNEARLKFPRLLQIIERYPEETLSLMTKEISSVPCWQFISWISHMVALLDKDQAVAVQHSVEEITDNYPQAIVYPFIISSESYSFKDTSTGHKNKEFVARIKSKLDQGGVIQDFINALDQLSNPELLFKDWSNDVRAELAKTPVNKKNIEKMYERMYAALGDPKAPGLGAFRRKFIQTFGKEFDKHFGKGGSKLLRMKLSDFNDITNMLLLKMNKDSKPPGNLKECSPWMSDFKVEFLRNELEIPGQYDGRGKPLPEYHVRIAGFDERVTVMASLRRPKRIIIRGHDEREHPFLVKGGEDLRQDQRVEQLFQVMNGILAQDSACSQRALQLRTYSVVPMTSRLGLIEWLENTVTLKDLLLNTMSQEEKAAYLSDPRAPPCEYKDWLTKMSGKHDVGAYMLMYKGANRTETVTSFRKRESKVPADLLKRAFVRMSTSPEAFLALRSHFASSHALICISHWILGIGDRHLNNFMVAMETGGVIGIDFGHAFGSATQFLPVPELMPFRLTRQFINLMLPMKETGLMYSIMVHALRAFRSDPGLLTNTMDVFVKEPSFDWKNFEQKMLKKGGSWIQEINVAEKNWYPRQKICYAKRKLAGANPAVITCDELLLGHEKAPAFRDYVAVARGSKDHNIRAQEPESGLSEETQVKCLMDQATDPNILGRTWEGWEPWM

Molecule	SNHG12 expression (HUVECs; NR 500 μM, 24 hrs)	NAD+/NADH ratio (HUVECs; gapmeR-transfected HUVECs, absence or presence of NR)	increase in lesion areas by ORO between SNHG12-gapmeR and control-gapmeR groups on NR (LDLR−/− mice; HCD with NR 400 mg/kg/day, 12 weeks, P=0.1729)	SNHG12-gapmeR mediated increase of γH2AX foci in lesional ECs in the aortic arch (LDLR−/− mice; NR 400 mg/kg/day, 12 weeks)	induction of senescence markers p16, p21, and p27 compared to SNHG12-gapmeR without NR (LDLR−/− mice; aortic intima, NR 400 mg/kg/day)	TUNEL positive cells compared to groups without NR (LDLR−/− mice; aortic sinus, NR 400 mg/kg/day)	differences in plaque necrosis (LDLR−/− mice; aortic sinus, NR 400 mg/kg/day)	reduction of DNA-PK binding (DNA-PK)
NC(=O)c1ccc[n+]([C@@H]2O[C@H](CO)[C@@H](O)[C@H]2O)c1 [NR, Nicotinamide Riboside]	did not affect	partially rescued	no significant	abrogated	fell	reduced	eliminated differences	–
B1	–	–	–	–	–	–	–	~50%

— patent US20220010310A1, “An lncRNA integrates a DNA-PK-mediated DNA damage response and vascular senescence” (The Brigham and Women`s Hospital, Inc., priority 2018, published 2022)
